Data from patent US20100298141A1, “SUBSTITUTED PYRIDINE N-OXIDE HERBICIDES” (E. I. DU PONT DE NEMOURS AND COMPANY, priority 2007, published 2010).

Columns and labels:
barnyardgrass [1] = test: Test A pre-/postemergence greenhouse test; format: in vivo, Echinochloa crus-galli; settings: for Plant response rating, Barnyardgrass: 0 to 100 scale where 0 is no effect and 100 is complete control; for Barnyardgrass plant response rating: 0 to 100 scale
How it was run: (§1)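 Sowing in loam/sand; same-day pre (directed soil spray) and post (foliar, 1–2 leaf, 2–10 cm) treatment with surfactant-containing non-phytotoxic solvent formulation; ~10 days in greenhouse; eye-scored injury against untreated plants.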

crabgrass = test: Test A pre-/postemergence greenhouse test; format: in vivo, Digitaria sanguinalis; settings: for Plant response rating, Crabgrass, Large: 0 to 100 scale where 0 is no effect and 100 is complete control; for Crabgrass, Large plant response rating: 0 to 100 scale
How it was run: as §1

giant foxtail = test: Test A pre-/postemergence greenhouse test; format: in vivo, Setaria faberi; settings: for Plant response rating, Foxtail, Giant: 0 to 100 scale where 0 is no effect and 100 is complete control; for Foxtail, Giant plant response rating: 0 to 100 scale
How it was run: as §1

morningglory = test: Test A pre-/postemergence greenhouse test; format: in vivo, Ipomoea spp.; settings: for Plant response rating, Morningglory: 0 to 100 scale where 0 is no effect and 100 is complete control; for Morningglory plant response rating: 0 to 100 scale
How it was run: as §1

redroot pigweed = test: Test A pre-/postemergence greenhouse test; format: in vivo, Amaranthus retroflexus; settings: for Plant response rating, Pigweed: 0 to 100 scale where 0 is no effect and 100 is complete control; for Pigweed plant response rating: 0 to 100 scale
How it was run: as §1

velvetleaf = test: Test A pre-/postemergence greenhouse test; format: in vivo, Abutilon theophrasti; settings: for Plant response rating, Velvetleaf: 0 to 100 scale where 0 is no effect and 100 is complete control; for Velvetleaf plant response rating: 0 to 100 scale
How it was run: as §1

wheat = test: Test A pre-/postemergence greenhouse test; format: in vivo, Triticum aestivum; settings: for Plant response rating, Wheat: 0 to 100 scale where 0 is no effect and 100 is complete control; for Wheat plant response rating: 0 to 100 scale
How it was run: as §1

corn = test: Test A pre-/postemergence greenhouse test; format: in vivo, Zea mays; settings: for Plant response rating, Corn: 0 to 100 scale where 0 is no effect and 100 is complete control; for Corn plant response rating: 0 to 100 scale
How it was run: as §1

rice = test: Test C flooded paddy test; format: in vivo, Oryza sativa; settings: Flood
How it was run: (§2)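 Visual injury ratings against untreated controls, taken 13 to 15 days after compound was added to paddy water standing 3 cm above the soil.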

umbrella sedge = test: Test C flooded paddy test; format: in vivo, Cyperus difformis; settings: Flood
How it was run: as §2

duck salad = test: Test C flooded paddy test; format: in vivo, Heteranthera limosa; settings: Flood
How it was run: as §2

barnyardgrass [2] = test: Test C flooded paddy test; format: in vivo, Echinochloa crus-galli; settings: Flood
How it was run: as §2

[3] = Postemergence, 500 g ai/ha, 0 is no effect, 100 is complete control
[4] = Preemergence, 125 g ai/ha, 0 no effect, 100 complete control
[5] = Preemergence, 500 g ai/ha, 0 no effect, 100 complete control
[6] = 31 g ai/ha, scale 0 to 100 (0 no effect, 100 complete control)
[7] = 62 g ai/ha, scale 0 to 100 (0 no effect, 100 complete control)
[8] = 125 g ai/ha, scale 0 to 100, 0 no effect, 100 complete control, 13 to 15 days
[9] = 250 g ai/ha, scale 0 to 100, 0 no effect, 100 complete control, 13 to 15 days

Cc1ccc[n+]([O-])c1[S+]([O-])Cc1c(C(F)(F)F)nn(C)c1OC(F)F (centres unmarked) [Compound 112]
Plant response rating, Barnyardgrass (barnyardgrass [1]; Postemergence, 125 g ai/ha): 70
Barnyardgrass plant response rating (barnyardgrass [1]; [3]): 80
Barnyardgrass plant response rating (barnyardgrass [1]; [4]): 60
Barnyardgrass plant response rating (barnyardgrass [1]; [5]): 90
Plant response rating, Crabgrass, Large (crabgrass; Postemergence, 125 g ai/ha): 70
Crabgrass, Large plant response rating (crabgrass; [3]): 80
Crabgrass, Large plant response rating (crabgrass; [4]): 70
Crabgrass, Large plant response rating (crabgrass; [5]): 90
Plant response rating, Foxtail, Giant (giant foxtail; Postemergence, 125 g ai/ha): 70
Foxtail, Giant plant response rating (giant foxtail; [3]): 80
Foxtail, Giant plant response rating (giant foxtail; [4]): 80
Foxtail, Giant plant response rating (giant foxtail; [5]): 100
Plant response rating, Morningglory (morningglory; Postemergence, 125 g ai/ha): 70
Morningglory plant response rating (morningglory; [3]): 90
Morningglory plant response rating (morningglory; [4]): 60
Morningglory plant response rating (morningglory; [5]): 90
Plant response rating, Pigweed (redroot pigweed; Postemergence, 125 g ai/ha): 40
Pigweed plant response rating (redroot pigweed; [3]): 60
Pigweed plant response rating (redroot pigweed; [4]): 10
Pigweed plant response rating (redroot pigweed; [5]): 90
Plant response rating, Velvetleaf (velvetleaf; Postemergence, 125 g ai/ha): 50
Velvetleaf plant response rating (velvetleaf; [3]): 70
Velvetleaf plant response rating (velvetleaf; [4]): 10
Velvetleaf plant response rating (velvetleaf; [5]): 60
Plant response rating, Wheat (wheat; Postemergence, 125 g ai/ha): 50
Wheat plant response rating (wheat; [3]): 60
Wheat plant response rating (wheat; [4]): 40
Wheat plant response rating (wheat; [5]): 70
Plant response rating, Corn (corn; Postemergence, 125 g ai/ha): 50
Corn plant response rating (corn; [3]): 60
Corn plant response rating (corn; [4]): 40
Corn plant response rating (corn; [5]): 70
Plant response rating, Rice (rice; [6]): 0
Plant response rating, Rice (rice; [7]): 0
Plant response rating, Rice (rice; [8]): 0
Plant response rating, Rice (rice; [9]): 15
Plant response rating, Sedge, Umbrella (umbrella sedge; [6]): 0
Plant response rating, Sedge, Umbrella (umbrella sedge; [7]): 30
Plant response rating, Sedge, Umbrella (umbrella sedge; [8]): 75
Plant response rating, Sedge, Umbrella (umbrella sedge; [9]): 95
Plant response rating, Ducksalad (duck salad; [6]): 0
Plant response rating, Ducksalad (duck salad; [7]): 0
Plant response rating, Ducksalad (duck salad; [8]): 20
Plant response rating, Ducksalad (duck salad; [9]): 50
Plant response rating, Barnyardgrass (barnyardgrass [2]; [6]): 0
Plant response rating, Barnyardgrass (barnyardgrass [2]; [7]): 0
Plant response rating, Barnyardgrass (barnyardgrass [2]; [8]): 15
Plant response rating, Barnyardgrass (barnyardgrass [2]; [9]): 45

Cn1nc(C(F)(F)F)c(CS(=O)(=O)c2cccc[n+]2[O-])c1OCC(F)(F)C(F)(F)F [Compound 83]
Plant response rating, Barnyardgrass (barnyardgrass [1]; Postemergence, 125 g ai/ha): 50
Barnyardgrass plant response rating (barnyardgrass [1]; [3]): 70
Barnyardgrass plant response rating (barnyardgrass [1]; [4]): 80
Plant response rating, Barnyardgrass (barnyardgrass [1]; Preemergence, 500 g ai/ha): 100
Plant response rating, Crabgrass, Large (crabgrass; Postemergence, 125 g ai/ha): 30
Crabgrass, Large plant response rating (crabgrass; [3]): 80
Crabgrass, Large plant response rating (crabgrass; [4]): 50
Plant response rating, Crabgrass, Large (crabgrass; Preemergence, 500 g ai/ha): 80
Plant response rating, Foxtail, Giant (giant foxtail; Postemergence, 125 g ai/ha): 70
Foxtail, Giant plant response rating (giant foxtail; [3]): 80
Foxtail, Giant plant response rating (giant foxtail; [4]): 80
Plant response rating, Foxtail, Giant (giant foxtail; Preemergence, 500 g ai/ha): 100
Plant response rating, Morningglory (morningglory; Postemergence, 125 g ai/ha): 10
Morningglory plant response rating (morningglory; [3]): 30
Morningglory plant response rating (morningglory; [4]): 0
Plant response rating, Morningglory (morningglory; Preemergence, 500 g ai/ha): 70
Plant response rating, Pigweed (redroot pigweed; Postemergence, 125 g ai/ha): 10
Pigweed plant response rating (redroot pigweed; [3]): 20
Pigweed plant response rating (redroot pigweed; [4]): 10
Plant response rating, Pigweed (redroot pigweed; Preemergence, 500 g ai/ha): 100
Plant response rating, Velvetleaf (velvetleaf; Postemergence, 125 g ai/ha): 0
Velvetleaf plant response rating (velvetleaf; [3]): 40
Velvetleaf plant response rating (velvetleaf; [4]): 0
Plant response rating, Velvetleaf (velvetleaf; Preemergence, 500 g ai/ha): 60
Plant response rating, Wheat (wheat; Postemergence, 125 g ai/ha): 0
Wheat plant response rating (wheat; [3]): 10
Wheat plant response rating (wheat; [4]): 10
Plant response rating, Wheat (wheat; Preemergence, 500 g ai/ha): 60
Plant response rating, Corn (corn; Postemergence, 125 g ai/ha): 0
Corn plant response rating (corn; [3]): 0
Corn plant response rating (corn; [4]): 0
Plant response rating, Corn (corn; Preemergence, 500 g ai/ha): 40
Plant response rating, Rice (rice; [7]): 20
Plant response rating, Rice (rice; [9]): 20
Plant response rating, Sedge, Umbrella (umbrella sedge; [7]): 0
Plant response rating, Sedge, Umbrella (umbrella sedge; [9]): 0
Plant response rating, Ducksalad (duck salad; [7]): 0
Plant response rating, Ducksalad (duck salad; [9]): 0
Plant response rating, Barnyardgrass (barnyardgrass [2]; [7]): 0
Plant response rating, Barnyardgrass (barnyardgrass [2]; [9]): 0

Cn1nc(C(F)(F)F)c(C[S+]([O-])c2cc(Cl)cc[n+]2[O-])c1OCC(F)(F)F (centres unmarked) [Compound 68]
Plant response rating, Barnyardgrass (barnyardgrass [1]; Postemergence, 125 g ai/ha): 50
Barnyardgrass plant response rating (barnyardgrass [1]; [3]): 80
Barnyardgrass plant response rating (barnyardgrass [1]; [4]): 30
Plant response rating, Barnyardgrass (barnyardgrass [1]; Preemergence, 500 g ai/ha): 100
Plant response rating, Crabgrass, Large (crabgrass; Postemergence, 125 g ai/ha): 50
Crabgrass, Large plant response rating (crabgrass; [3]): 90
Crabgrass, Large plant response rating (crabgrass; [4]): 40
Plant response rating, Crabgrass, Large (crabgrass; Preemergence, 500 g ai/ha): 100
Plant response rating, Foxtail, Giant (giant foxtail; Postemergence, 125 g ai/ha): 70
Foxtail, Giant plant response rating (giant foxtail; [3]): 90
Foxtail, Giant plant response rating (giant foxtail; [4]): 70
Plant response rating, Foxtail, Giant (giant foxtail; Preemergence, 500 g ai/ha): 100
Plant response rating, Morningglory (morningglory; Postemergence, 125 g ai/ha): 10
Morningglory plant response rating (morningglory; [3]): 70
Morningglory plant response rating (morningglory; [4]): 30
Plant response rating, Morningglory (morningglory; Preemergence, 500 g ai/ha): 80
Plant response rating, Pigweed (redroot pigweed; Postemergence, 125 g ai/ha): 40
Pigweed plant response rating (redroot pigweed; [3]): 80
Pigweed plant response rating (redroot pigweed; [4]): 40
Plant response rating, Pigweed (redroot pigweed; Preemergence, 500 g ai/ha): 100
Plant response rating, Velvetleaf (velvetleaf; Postemergence, 125 g ai/ha): 50
Velvetleaf plant response rating (velvetleaf; [3]): 60
Velvetleaf plant response rating (velvetleaf; [4]): 0
Plant response rating, Velvetleaf (velvetleaf; Preemergence, 500 g ai/ha): 60
Plant response rating, Wheat (wheat; Postemergence, 125 g ai/ha): 50
Wheat plant response rating (wheat; [3]): 60
Wheat plant response rating (wheat; [4]): 30
Plant response rating, Wheat (wheat; Preemergence, 500 g ai/ha): 70
Plant response rating, Corn (corn; Postemergence, 125 g ai/ha): 30
Corn plant response rating (corn; [3]): 70
Corn plant response rating (corn; [4]): 0
Plant response rating, Corn (corn; Preemergence, 500 g ai/ha): 70
Plant response rating, Rice (rice; [7]): 0
Plant response rating, Rice (rice; [9]): 80
Plant response rating, Sedge, Umbrella (umbrella sedge; [7]): 100
Plant response rating, Sedge, Umbrella (umbrella sedge; [9]): 100
Plant response rating, Ducksalad (duck salad; [7]): 85
Plant response rating, Ducksalad (duck salad; [9]): 90
Plant response rating, Barnyardgrass (barnyardgrass [2]; [7]): 0
Plant response rating, Barnyardgrass (barnyardgrass [2]; [9]): 20
